Data reported in patent US11524951B2, “2-(2,4,5-substituted-anilino)pyrimidine compounds” (AstraZeneca AB, priority 2011, dated 2022).

Tests used:
Format in all cases: cell-based
Exon19 deletion EGFR = target: T1, Exon19 deletion EGFR (Homo sapiens, UniProt P00533, DEL746-750); experiment: Exon19 deletion EGFR (activating single mutant) cellular phosphorylation assay; conditions: PC9 human lung cells (Exon 19 deletion EGFR); endogenous p-EGFR in cell lysates by ELISA; 2 h with compound; read-out: Assay 1 (IC50)
T1 construct: Assays to measure cellular phosphorylation of endogenous p-EGFR in cell lysates; endogenous in cells; host or cells: PC9 (human lung cell line)
T1 sequence (P00533 with tags, fused parts or gaps DEL746-750): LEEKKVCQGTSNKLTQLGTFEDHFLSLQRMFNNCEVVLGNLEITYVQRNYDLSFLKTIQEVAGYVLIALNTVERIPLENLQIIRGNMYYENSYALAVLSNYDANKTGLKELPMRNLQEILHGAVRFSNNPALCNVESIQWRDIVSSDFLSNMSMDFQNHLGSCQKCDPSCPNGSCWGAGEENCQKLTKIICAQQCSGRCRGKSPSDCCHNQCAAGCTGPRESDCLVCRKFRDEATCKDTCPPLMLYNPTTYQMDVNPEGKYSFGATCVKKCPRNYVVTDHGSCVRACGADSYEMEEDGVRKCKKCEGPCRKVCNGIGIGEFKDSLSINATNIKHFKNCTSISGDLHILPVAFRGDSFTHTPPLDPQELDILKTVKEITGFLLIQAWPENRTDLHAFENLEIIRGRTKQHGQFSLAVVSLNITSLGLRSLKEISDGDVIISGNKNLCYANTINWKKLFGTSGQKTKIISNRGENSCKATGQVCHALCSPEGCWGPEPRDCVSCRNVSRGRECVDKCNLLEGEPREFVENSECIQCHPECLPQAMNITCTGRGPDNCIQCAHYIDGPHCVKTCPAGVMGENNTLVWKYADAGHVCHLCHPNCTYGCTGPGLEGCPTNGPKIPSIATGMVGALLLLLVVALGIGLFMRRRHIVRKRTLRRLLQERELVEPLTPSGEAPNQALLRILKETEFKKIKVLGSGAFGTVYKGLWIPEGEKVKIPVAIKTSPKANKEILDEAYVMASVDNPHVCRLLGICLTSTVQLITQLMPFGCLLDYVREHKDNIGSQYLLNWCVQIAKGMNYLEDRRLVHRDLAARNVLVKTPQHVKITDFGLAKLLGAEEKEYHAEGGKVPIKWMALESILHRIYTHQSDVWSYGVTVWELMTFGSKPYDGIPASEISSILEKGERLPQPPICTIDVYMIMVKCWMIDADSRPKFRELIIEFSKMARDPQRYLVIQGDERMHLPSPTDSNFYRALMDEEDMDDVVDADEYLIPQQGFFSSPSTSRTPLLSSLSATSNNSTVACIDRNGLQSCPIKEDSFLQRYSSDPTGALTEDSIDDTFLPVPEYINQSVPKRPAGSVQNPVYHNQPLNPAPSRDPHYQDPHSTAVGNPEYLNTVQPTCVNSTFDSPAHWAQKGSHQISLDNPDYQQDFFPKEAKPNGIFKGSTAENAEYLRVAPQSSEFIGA
Protocol: Assay 1: Exon19 Deletion EGFR (Activating Single Mutant) Cellular Phosphorylation Assay
The human lung cell line PC9 (Exon 19 deletion EGFR) were obtained from the American type Culture Collection. […] Cells were grown in a humidified incubator at 37° C. with 5% CO2. Assays to measure cellular phosphorylation of endogenous p-EGFR in cell lysates were carried out according to the protocol described in the R&D Systems DuoSet IC Human Phospho-EGF R ELISA (R&D Systems catalogue number #DYC1095). 40 μL of cells were seeded (10000 cells/well) in growth medium in Corning black, clear-bottomed 384-well plates and incubated at 37° C. with 5% CO2 overnight. […] Plates were incubated for a further 2 h, then following aspiration of medium, 40 μL 1× lysis buffer was added to each well. Greiner black high bind 384-well plates were coated with capture antibody and then blocked with 3% BSA. Following removal of block, […], of lysate were transferred to the Greiner black high bind 384-well plates and incubated for 2 hours. Following aspiration and washing of the plates with PBS, 20 μL of detection antibody were added and incubated for 2 hours. […] The data obtained with each compound was exported into a suitable software package (such as Origin) to perform curve fitting analysis.

L858R/T790M EGFR = target: T2, L858R/T790M EGFR (Homo sapiens, UniProt P00533, L858R/T790M); experiment: L858R/T790M EGFR (double mutant) cellular phosphorylation assay; conditions: NCI-H1975 human lung cells; endogenous p-EGFR in cell lysates by ELISA; 2 h with compound
T2 construct: Assays to measure cellular phosphorylation of endogenous p-EGFR in cell lysates; endogenous in cells; host or cells: NCI-H1975 (human lung cell line)
T2 sequence (P00533 25-1210 T790M/L858R): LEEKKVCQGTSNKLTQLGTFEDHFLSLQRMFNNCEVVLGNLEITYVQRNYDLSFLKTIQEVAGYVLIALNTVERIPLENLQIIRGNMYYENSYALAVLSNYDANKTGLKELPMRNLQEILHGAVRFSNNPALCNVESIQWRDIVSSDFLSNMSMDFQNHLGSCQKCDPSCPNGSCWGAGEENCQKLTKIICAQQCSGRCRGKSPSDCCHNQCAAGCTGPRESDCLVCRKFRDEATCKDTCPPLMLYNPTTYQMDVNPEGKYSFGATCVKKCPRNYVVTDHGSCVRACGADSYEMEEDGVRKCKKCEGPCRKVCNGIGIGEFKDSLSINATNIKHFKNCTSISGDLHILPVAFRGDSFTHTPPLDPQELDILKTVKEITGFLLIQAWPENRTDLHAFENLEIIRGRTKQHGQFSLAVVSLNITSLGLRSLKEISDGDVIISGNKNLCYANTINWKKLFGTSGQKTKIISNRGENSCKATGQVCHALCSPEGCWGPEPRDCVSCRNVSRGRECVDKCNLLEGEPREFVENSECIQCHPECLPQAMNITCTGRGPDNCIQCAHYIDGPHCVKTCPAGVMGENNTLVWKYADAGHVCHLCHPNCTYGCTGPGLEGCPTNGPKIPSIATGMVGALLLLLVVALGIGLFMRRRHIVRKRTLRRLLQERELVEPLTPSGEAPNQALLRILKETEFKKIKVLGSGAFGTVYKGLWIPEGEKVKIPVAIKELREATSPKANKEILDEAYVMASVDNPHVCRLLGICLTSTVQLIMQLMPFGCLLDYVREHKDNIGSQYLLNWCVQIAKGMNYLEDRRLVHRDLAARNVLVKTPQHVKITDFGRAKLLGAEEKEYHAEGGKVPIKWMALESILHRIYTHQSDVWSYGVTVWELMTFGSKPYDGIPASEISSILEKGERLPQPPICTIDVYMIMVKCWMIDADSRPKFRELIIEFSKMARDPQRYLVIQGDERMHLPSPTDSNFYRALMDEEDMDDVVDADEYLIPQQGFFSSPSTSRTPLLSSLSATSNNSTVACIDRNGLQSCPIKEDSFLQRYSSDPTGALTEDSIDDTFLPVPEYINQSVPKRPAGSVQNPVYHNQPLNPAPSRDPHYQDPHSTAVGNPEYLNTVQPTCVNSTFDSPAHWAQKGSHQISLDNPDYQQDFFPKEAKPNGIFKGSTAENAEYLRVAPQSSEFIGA
Protocol: Assay 2: L858R/T790M EGFR (Double Mutant) Cellular Phosphorylation Assay
The human lung cell lines NCI-H1975 were obtained from the American type Culture Collection. […] Cells were grown in a humidified incubator at 37° C. with 5% CO2.
Assays to measure cellular phosphorylation of endogenous p-EGFR in cell lysates were carried out according to the protocol described in the R&D Systems DuoSet IC Human Phospho-EGF R ELISA (R&D Systems catalogue number #DYC1095).
40 μL of cells were seeded (10000 cells/well) in growth medium in Corning black, clear-bottomed 384-well plates and incubated at 37° C. with 5% CO2 overnight. […] Plates were incubated for a further 2 h and following aspiration of medium, 40 μL 1× lysis buffer was added to each well. Greiner black high bind 384-well plates were coated with capture antibody and then blocked with 3% BSA. Following removal of block, 15 μL of lysate were transferred to the Greiner black high bind 384-well plates and incubated for 2 hours. Following aspiration and washing of the plates with PBS, 20 μL of detection antibody were added and incubated for 2 hours. […] 20 μL QuantaBlu stop solution were added to plates and fluorescence read on an Envision plate reader using
The data obtained with each compound was exported into a suitable software package (such as Origin) to perform curve fitting analysis.

Wild-type EGFR = target: T3, Wild-type EGFR (Homo sapiens, UniProt P00533); experiment: Wild-type EGFR cellular phosphorylation assay; conditions: LoVo human colon cells; endogenous p-EGFR in cell lysates by ELISA; 2 h with compound, then stimulated 100 ng/ml for 10 minutes; read-out: Assay 3 (IC50)
T3 construct: Assays to measure cellular phosphorylation of endogenous p-EGFR in cell lysates; endogenous in cells; host or cells: LoVo (human colon cell line)
T3 sequence (P00533 25-1210): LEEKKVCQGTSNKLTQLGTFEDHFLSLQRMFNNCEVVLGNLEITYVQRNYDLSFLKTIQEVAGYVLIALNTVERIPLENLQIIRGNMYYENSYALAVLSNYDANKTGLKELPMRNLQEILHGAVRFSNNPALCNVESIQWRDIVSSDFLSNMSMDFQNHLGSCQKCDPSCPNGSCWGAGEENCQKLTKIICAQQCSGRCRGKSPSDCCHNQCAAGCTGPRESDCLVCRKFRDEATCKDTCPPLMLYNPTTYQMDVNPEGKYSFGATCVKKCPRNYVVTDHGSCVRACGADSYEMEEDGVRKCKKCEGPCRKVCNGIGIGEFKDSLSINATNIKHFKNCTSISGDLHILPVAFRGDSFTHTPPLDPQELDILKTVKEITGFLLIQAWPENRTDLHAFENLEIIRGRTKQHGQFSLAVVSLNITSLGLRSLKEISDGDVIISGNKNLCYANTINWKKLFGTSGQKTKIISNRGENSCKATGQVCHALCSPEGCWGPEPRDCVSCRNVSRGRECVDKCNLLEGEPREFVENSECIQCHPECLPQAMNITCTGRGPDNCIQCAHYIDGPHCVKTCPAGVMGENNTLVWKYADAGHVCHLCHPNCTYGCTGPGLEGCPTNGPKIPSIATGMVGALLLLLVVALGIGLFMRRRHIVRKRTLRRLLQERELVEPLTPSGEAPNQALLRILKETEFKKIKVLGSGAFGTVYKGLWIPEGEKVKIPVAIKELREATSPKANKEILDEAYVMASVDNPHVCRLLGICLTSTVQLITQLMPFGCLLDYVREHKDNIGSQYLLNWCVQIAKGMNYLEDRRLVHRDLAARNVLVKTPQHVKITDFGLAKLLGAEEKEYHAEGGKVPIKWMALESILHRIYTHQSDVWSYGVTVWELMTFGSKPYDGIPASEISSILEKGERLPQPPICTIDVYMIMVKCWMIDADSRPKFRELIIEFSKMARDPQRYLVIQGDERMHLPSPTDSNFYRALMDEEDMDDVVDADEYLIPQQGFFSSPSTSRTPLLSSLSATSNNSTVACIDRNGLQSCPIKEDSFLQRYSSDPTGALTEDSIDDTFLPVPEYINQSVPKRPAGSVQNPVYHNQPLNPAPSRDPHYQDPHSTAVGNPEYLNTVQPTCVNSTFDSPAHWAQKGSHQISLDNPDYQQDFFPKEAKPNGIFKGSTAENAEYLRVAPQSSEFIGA
Protocol: Assay 3: Wild-Type EGFR Cellular Phosphorylation Assay
The human colon cell line LoVo were obtained from the American type Culture Collection. […] Cells were grown in a humidified incubator at 37° C. with 5% CO2. Assays to measure cellular phosphorylation of endogenous p-EGFR in cell lysates were carried out according to the protocol described in the R&D Systems DuoSet IC Human Phospho-EGF R ELISA (R&D Systems catalogue number #DYC1095). 40 μL of cells were seeded (15000 cells/well) in growth medium in Corning black, clear-bottomed 384-well plates and incubated at 37° C. with 5% CO2 overnight. […] Plates were incubated for a further 2 h then stimulated with 100 ng/ml for 10 minutes and following aspiration of medium, 40 μL 1× lysis buffer was added to each well. Greiner black high bind 384-well plates were coated with capture antibody and then blocked with 3% BSA. […] Following aspiration and washing of the plates with PBS, 20 μL of detection antibody were added and incubated for 2 hours. […] The data obtained with each compound was exported into a suitable software package (such as Origin) to perform curve fitting analysis.

C=CC(=O)Nc1cc(Nc2ncc(C)c(-c3cn(C)c4ccccc34)n2)c(OC)cc1N1CC(N(C)C)C1 [Example 35, N-(2-{3-Dimethylaminoazetidin-1-yl}-4-methoxy-5-{[5-methyl-4-(1-methylindol-3-yl)pyrimidin-2-yl]amino}phenyl)prop-2-enamide]
IC50 (Exon19 deletion EGFR): 8.57 nM | IC50 (L858R/T790M EGFR): 6.77 nM | IC50 (Wild-type EGFR): 262 nM

C=CC(=O)Nc1cc(Nc2nccc(-c3c[nH]c4ccccc34)n2)c(OC)cc1N1CC(N(C)C)C1 [Example 58, N-(2-[3-Dimethylaminoazetidin-1-yl]-5-{[4-(1H-indol-3-yl)pyrimidin-2-yl]amino}-4-methoxyphenyl)prop-2-enamide]
IC50 (Exon19 deletion EGFR): 7.08 nM | IC50 (L858R/T790M EGFR): 16.8 nM | IC50 (Wild-type EGFR): 179 nM

C=CC(=O)Nc1cc(Nc2ncc(Cl)c(-c3cnn4ccccc34)n2)c(OC)cc1N(C)CCN(C)C [Example 6, N-{5-[(5-Chloro-4-pyrazolo[1,5-a]pyridin-3-ylpyrimidin-2-yl)amino]-2-[2-dimethylaminoethyl-methylamino]-4-methoxyphenyl}prop-2-enamide]
IC50 (Exon19 deletion EGFR): 2.18 nM | IC50 (L858R/T790M EGFR): 0.669 nM | IC50 (Wild-type EGFR): 196 nM

C=CC(=O)Nc1cc(Nc2ncc(Cl)c(-c3cnn4ccccc34)n2)c(OC)cc1N1CCN(CC(=O)N(C)C)CC1 [Example 10, N-{5-[(5-Chloro-4-pyrazolo[1,5-a]pyridin-3-ylpyrimidin-2-yl)amino]-2-[4-(2-dimethylamino-2-oxoethyl)piperazin-1-yl]-4-methoxyphenyl}prop-2-enamide]
IC50 (Exon19 deletion EGFR): 73.8 nM | IC50 (L858R/T790M EGFR): 40 nM | IC50 (Wild-type EGFR): 8430 nM

C=CC(=O)Nc1cc(Nc2nccc(-c3cnn4c3CCCC4)n2)c(OC)cc1N1CC2(CCCN2C)C1 [Example 47, N-(4-Methoxy-2-{8-methyl-2,8-diazaspiro[3.4]octan-2-yl}-5-{[4-(4,5,6,7-tetrahydropyrazolo[1,5-a]pyridin-3-yl)pyrimidin-2-yl]amino}phenyl)prop-2-enamide]
IC50 (Exon19 deletion EGFR): 194 nM | IC50 (L858R/T790M EGFR): 119 nM | IC50 (Wild-type EGFR): 15400 nM

C=CC(=O)Nc1cc(Nc2ncc(Cl)c(-c3c[nH]c4ccccc34)n2)c(OC)cc1N1CC(N(C)C)C1 [Example 37, N-(5-{[5-Chloro-4-(1H-indol-3-yl)pyrimidin-2-yl]amino}-2-{3-dimethylaminoazetidin-1-yl}-4-methoxyphenyl)prop-2-enamide]
IC50 (Exon19 deletion EGFR): 2.11 nM | IC50 (L858R/T790M EGFR): 1.81 nM | IC50 (Wild-type EGFR): 48.6 nM

C=CC(=O)Nc1cc(Nc2nccc(-c3cnn4ccccc34)n2)c(OC)cc1N1CC2(CCCN2C)C1 [Example 56, N-{4-Methoxy-2-[8-methyl-2,8-diazaspiro[3.4]octan-2-yl]-5-[(4-pyrazolo[1,5-a]pyridin-3-ylpyrimidin-2-yl)amino]phenyl}prop-2-enamide]
IC50 (Exon19 deletion EGFR): 44.3 nM | IC50 (L858R/T790M EGFR): 29.2 nM | IC50 (Wild-type EGFR): 3500 nM

C=CC(=O)Nc1cc(Nc2ncc(Cl)c(-c3c[nH]c4ccccc34)n2)c(OC)cc1N1CCN(C)CC1 [Example 17, N-(5-{[5-Chloro-4-(1H-indol-3-yl)pyrimidin-2-yl]amino}-4-methoxy-2-{4-methylpiperazin-1-yl}phenyl)prop-2-enamide]
IC50 (Exon19 deletion EGFR): 23.4 nM | IC50 (L858R/T790M EGFR): 5.64 nM | IC50 (Wild-type EGFR): 772 nM

C=CC(=O)Nc1cc(Nc2ncc(C)c(-c3cn(C)c4ccccc34)n2)c(OC)cc1N1CCN(C)CC1 [Example 18, N-(4-Methoxy-5-{[5-methyl-4-(1-methylindol-3-yl)pyrimidin-2-yl]amino}-2-{4-methylpiperazin-1-yl}phenyl)prop-2-enamide]
IC50 (Exon19 deletion EGFR): 66.4 nM | IC50 (L858R/T790M EGFR): 31.4 nM | IC50 (Wild-type EGFR): 2700 nM

C=CC(=O)Nc1cc(Nc2nccc(-c3cnn4ccccc34)n2)c(OC)cc1N1CC[C@@H](N(C)C)C1 [Example 52, N-{2-[(3R)-3-Dimethylaminopyrrolidin-1-yl]-4-methoxy-5-[(4-pyrazolo[1,5-a]pyridin-3-ylpyrimidin-2-yl)amino]phenyl}prop-2-enamide]
IC50 (Exon19 deletion EGFR): 26 nM | IC50 (L858R/T790M EGFR): 15 nM | IC50 (Wild-type EGFR): 1400 nM

C=CC(=O)Nc1cc(Nc2ncc(C#N)c(-c3cn(C)c4ccccc34)n2)c(OC)cc1N(C)CCN(C)C [Example 29, N-(5-{[5-Cyano-4-(1-methylindol-3-yl)pyrimidin-2-yl]amino}-2-{2-dimethylaminoethyl-methylamino}-4-methoxyphenyl)prop-2-enamide]
IC50 (Exon19 deletion EGFR): 1.23 nM | IC50 (L858R/T790M EGFR): 0.885 nM | IC50 (Wild-type EGFR): 46.5 nM

C=CC(=O)Nc1cc(Nc2nccc(-c3cn(C)c4ccccc34)n2)c(OC)cc1N1CC(N(C)C)C1 [Example 36, N-(2-{3-Dimethylaminoazetidin-1-yl}-4-methoxy-5-{[4-(1-methylindol-3-yl)pyrimidin-2-yl]amino}phenyl)prop-2-enamide]
IC50 (Exon19 deletion EGFR): 43.3 nM | IC50 (L858R/T790M EGFR): 32.7 nM | IC50 (Wild-type EGFR): 1050 nM

C=CC(=O)Nc1cc(Nc2ncc(Cl)c(-c3cnn4ccccc34)n2)c(OC)cc1N1CC[C@H](N(C)C)C1 [Example 12, N-{5-[(5-Chloro-4-pyrazolo[1,5-a]pyridin-3-ylpyrimidin-2-yl)amino]-2-[(3S)-3-dimethylaminopyrrolidin-1-yl]-4-methoxyphenyl}prop-2-enamide]
IC50 (Exon19 deletion EGFR): 36.1 nM | IC50 (L858R/T790M EGFR): 5.82 nM | IC50 (Wild-type EGFR): 1390 nM

C=CC(=O)Nc1cc(Nc2nccc(-c3cnn4ccccc34)n2)c(OC)cc1N1CC(N(C)C)C1 [Example 53, N-{2-(3-Dimethylaminoazetidin-1-yl)-4-methoxy-5-[(4-pyrazolo[1,5-a]pyridin-3-ylpyrimidin-2-yl)amino]phenyl}prop-2-enamide]
IC50 (Exon19 deletion EGFR): 35.4 nM | IC50 (L858R/T790M EGFR): 28.2 nM | IC50 (Wild-type EGFR): 2640 nM

C=CC(=O)Nc1cc(Nc2nccc(-c3cnn4c3CCCC4)n2)c(OC)cc1C1=CCN(C)CC1 [Example 45, N-(4-Methoxy-2-{1-methyl-3,6-dihydro-2H-pyridin-4-yl}-5-{[4-(4,5,6,7-tetrahydropyrazolo[1,5-a]pyridin-3-yl)pyrimidin-2-yl]amino}phenyl)prop-2-enamide]
IC50 (Exon19 deletion EGFR): 110 nM | IC50 (L858R/T790M EGFR): 41 nM | IC50 (Wild-type EGFR): 7400 nM

C=CC(=O)Nc1cc(Nc2ncc(Cl)c(-c3cn(C)c4ccccc34)n2)c(OC)cc1N1CC[C@@H](N(C)C)C1 [Example 21, N-(5-{[5-Chloro-4-(1-methylindol-3-yl)pyrimidin-2-yl]amino}-2-{(3R)-3-dimethylaminopyrrolidin-1-yl}-4-methoxyphenyl)prop-2-enamide]
IC50 (Exon19 deletion EGFR): 2.95 nM | IC50 (L858R/T790M EGFR): 2.34 nM | IC50 (Wild-type EGFR): 128 nM

C=CC(=O)Nc1cc(Nc2ncc(C#N)c(-c3cn(C)c4ccccc34)n2)c(OC)cc1N1CC[C@@H](N(C)C)C1 [Example 22, N-(5-{[5-Cyano-4-(1-methylindol-3-yl)pyrimidin-2-yl]amino}-2-{(3R)-3-dimethylaminopyrrolidin-1-yl}-4-methoxyphenyl)prop-2-enamide]
IC50 (Exon19 deletion EGFR): 2.14 nM | IC50 (L858R/T790M EGFR): 1.52 nM | IC50 (Wild-type EGFR): 73.4 nM

C=CC(=O)Nc1cc(Nc2ncc(Cl)c(-c3cnn4ccccc34)n2)c(OC)cc1N(C)CCN1CCN(C)CC1 [Example 32, N-(5-{[5-Chloro-4-pyrazolo[1,5-a]pyridin-3-ylpyrimidin-2-yl]amino}-4-methoxy-2-{methyl-[2-(4-methylpiperazin-1-yl)ethyl]amino}phenyl)prop-2-enamide]
IC50 (Exon19 deletion EGFR): 138 nM | IC50 (L858R/T790M EGFR): 23.8 nM | IC50 (Wild-type EGFR): 10500 nM
